29 compounds from US8143426B2, “IAP inhibitors” (TetraLogic Pharmaceuticals Corporation, priority 2006, dated 2012) can be followed below.

Broadly, the Kd is the concentration at which binding is half-saturated. Lower therefore signals higher affinity.

The target in the first assay is T1, XIAP BIR3 (Homo sapiens, UniProt P98170).
T1 construct: 40 nM of an IAP-BIR3
T1 sequence (P98170 241-356 limits assumed): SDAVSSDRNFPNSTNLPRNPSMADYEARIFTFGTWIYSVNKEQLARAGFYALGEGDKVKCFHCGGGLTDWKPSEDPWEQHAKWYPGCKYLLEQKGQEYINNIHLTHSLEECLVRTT
Description: Fluorescence polarization binding of IAP antagonists to IAP-BIR3 (competition with AbuRPF-K(5-Fam)-NH2). The settings on record: Table 1, monomeric IAP antagonists (sugar-modified). On the procedure: The binding affinity of illustrative compounds of the present invention to an IAP was determined substantially as described by Nikolovska-Coleska, Z. et. al. (Analytical Biochemistry (2004), vol. 332:261-273) using a variety of fluorogenic substrates and is reported as a Kd value. Briefly, various concentrations of IAP antagonists were mixed with 5 nM fluorescently labeled peptide (AbuRPF-K(5-Fam)-NH2) and 40 nM of an IAP-BIR3 for 15 min at RT in […] of 0.1M Potassium Phosphate buffer, pH 7.5 containing […] bovine g-globulin. Following incubation, the polarization values (mP) were measured on a Victor2V using a 485 nm excitation filter and a 520 nm emission filter. IC50 values were determined from the plot using nonlinear least-squares analysis using GraphPad Prism.
As to `CNC(C)C(=O)NC(C(=O)N1CCCC1Cc1cn(C2OC(C)C(O)C(O)C2O)c2cc(F)ccc12)C(C)C` (centres unmarked) [H], the Kd is less than 100 nM.

Compound `CNC(C)C(=O)NC(C(=O)N1CC(O)CC1Cc1c(-c2ccc(F)cc2)n(C2OC(C)C(O)C(O)C2O)c2cc(F)ccc12)C(C)OC` (centres unmarked) [U] yielded a Kd of less than 100 nM.

Compound `CNC(C)C(=O)NC(C(=O)N1CCCC1Cc1cn(C2OC(C)C(O)C(O)C2O)c2cc(F)ccc12)C(C)(C)C` (centres unmarked) [F] registered a Kd of less than 100 nM.

The compound `CNC(C)C(=O)NC(C(=O)N1CC(O)CC1Cc1c(-c2ccc(F)cc2)n(C2OC(C)C(O)C(O)C2O)c2cc(F)ccc12)C(C)(C)C` (centres unmarked) [T] returned a Kd of less than 100 nM.

The compound `CN[C@@H](C)C(=O)N[C@H](C(=O)N1CCC[C@H]1Cc1cn(C2OC[C@@H](O)[C@H](O)[C@H]2O)c2cc(F)ccc12)C(C)(C)C` (some centres unmarked) [N] returned a Kd of less than 100 nM.

As for `CNC(C)C(=O)NC(C(=O)N1CCCC1Cc1c(-c2ccc(F)cc2)n(C2OCC(O)C(O)C2O)c2cc(F)ccc12)C(C)(C)C` (centres unmarked) [Compound A], the Kd is less than 100 nM.

In turn, `CN[C@@H](C)C(=O)N[C@H](C(=O)N1CCC[C@H]1Cc1c(-c2ccc(F)cc2)n(C2O[C@@H](C)[C@@H](O)[C@@H](O)[C@@H]2O)c2cc(F)ccc12)[C@@H](C)OC` (some centres unmarked) [O] displayed a Kd of less than 100 nM.

The compound `CN[C@@H](C)C(=O)N[C@H](C(=O)N1CCC[C@H]1Cc1c(-c2ccc(F)cc2)n(C2OC[C@@H](O)[C@H](O)[C@H]2O)c2cc(F)ccc12)C(C)C` (some centres unmarked) [B] had a Kd of less than 100 nM.

Compound `CNC(C)C(=O)NC(C(=O)N1CCCC1Cc1cn(C2OC(C)C(O)C(O)C2O)c2cc(F)ccc12)C1CCCCC1` (centres unmarked) [G] came in with a Kd of less than 100 nM.

The same assay, now with this note: Table 2, dimeric IAP antagonists.
The compound `CC(C)C(NC(=O)CN)C(=O)N1CCCC1Cc1c(-c2c(CC3CCCN3C(=O)C(NC(=O)CN)C(C)C)c3ccc(F)cc3n2C2OC(C)C(O)C(O)C2O)[nH]c2cc(F)ccc12` (centres unmarked) [W] gave a Kd of 100 to 1000 nM.

On to `CNC(C)C(=O)NC(C(=O)N1CCCC1Cc1c(-c2c(CC3CCCN3C(=O)C(NC(=O)C(C)NC)C(C)C)c3cc(F)ccc3n2C2OC(C)C(O)C(O)C2O)[nH]c2ccc(F)cc12)C(C)C` (centres unmarked) [DD], for which the Kd is less than 100 nM.

As for `CN[C@@H](C)C(=O)N[C@H](C(=O)N1CCC[C@H]1Cc1c(-c2c(C[C@@H]3CCCN3C(=O)[C@@H](NC(=O)[C@H](C)NC)C(C)C)c3cc(F)ccc3n2C2O[C@H](CO)[C@@H](O)[C@H](O)[C@H]2O)[nH]c2ccc(F)cc12)C(C)C` (some centres unmarked) [CC], the Kd was less than 100 nM.

The compound `CN[C@@H](C)C(=O)N[C@H](C(=O)N1CCC[C@H]1Cc1c(-c2c(C[C@@H]3CCCN3C(=O)[C@@H](NC(=O)[C@H](C)NC)C(C)C)c3ccc(F)cc3n2C2OC[C@@H](O)[C@H](O)[C@H]2O)[nH]c2cc(F)ccc12)C(C)C` (some centres unmarked) [Y] returned a Kd of less than 100 nM.

`CNC(C)C(=O)NC(C(=O)N1CC(O)CC1Cc1c(-c2c(CC3CC(O)CN3C(=O)C(NC(=O)C(C)NC)C(C)OC)c3ccc(F)cc3n2C2OC(C)C(O)C(O)C2O)[nH]c2cc(F)ccc12)C(C)OC` (centres unmarked) [FF]: the dissociation constant (Kd) was less than 100 nM.

In turn, `CNC(C)C(=O)NC(C(=O)N1CCCC1Cc1c(-c2c(CC3CCCN3C(=O)C(NC(=O)C(C)NC)C(C)OC)c3ccc(F)cc3n2C2OC(C)C(O)C(O)C2O)[nH]c2cc(F)ccc12)C(C)OC` (centres unmarked) [EE] registered a Kd of less than 100 nM.

`CN[C@@H](C)C(=O)N[C@H](C(=O)N1CCCC1Cc1c(-c2c(C[C@@H]3CCCN3C(=O)[C@@H](NC(=O)[C@H](C)NC)C(C)C)c3ccc(F)cc3n2C2O[C@@H](C)[C@@H](O)[C@@H](O)[C@@H]2O)[nH]c2cc(F)ccc12)C(C)C` (some centres unmarked) [V] came in with a Kd of less than 100 nM.

Consider `CN[C@@H](C)C(=O)N[C@H](C(=O)N1CCC[C@H]1Cc1c(-c2c(C[C@@H]3CCCN3C(=O)[C@@H](NC(=O)[C@H](C)NC)C(C)C)c3cc(F)ccc3n2C2O[C@H](CO)[C@H](O)[C@H](O)[C@H]2O)[nH]c2ccc(F)cc12)C(C)C` (some centres unmarked) [AA], for which the Kd was less than 100 nM.

The same assay, now with this note: Table 3, monomeric IAP antagonists (piperidine-substituted).
For `CN[C@@H](C)C(=O)N[C@H](C(=O)N1C[C@@H](O)C[C@H]1Cc1c(-c2ccc(F)cc2)n(C2CCNCC2)c2cc(F)ccc12)C(C)(C)C` [LL], the Kd is less than 100 nM.

For `CN[C@H](C(=O)N[C@H](C(=O)N1CCC[C@H]1Cc1c(-c2ccc(F)cc2)n(C2CCNCC2)c2cc(F)ccc12)[C@@H](C)OC)C1CC1` [KK], the Kd was 100 to 1000 nM.

Regarding `CCN[C@@H](C)C(=O)N[C@H](C(=O)N1C[C@@H](O)C[C@H]1Cc1c(-c2ccc(F)cc2)n(C2CCNCC2)c2cc(F)ccc12)[C@@H](C)OC` [QQ], the Kd was less than 100 nM.

`CN[C@@H](C)C(=O)N[C@H](C(=O)N1CCCC1Cc1c(-c2ccc(F)cc2)n(C2CCNCC2)c2cc(F)ccc12)C(C)(C)C` (some centres unmarked) [HH] had a Kd of less than 100 nM.

Compound `CN[C@H](C(=O)N[C@H](C(=O)N1C[C@@H](O)C[C@H]1Cc1c(-c2ccc(F)cc2)n(C2CCNCC2)c2cc(F)ccc12)C(C)(C)C)C1CC1` [OO] returned a Kd greater than 10000 nM.

`CCN[C@@H](C)C(=O)N[C@H](C(=O)N1C[C@@H](O)C[C@H]1Cc1c(-c2ccc(F)cc2)n(C2CCNCC2)c2cc(F)ccc12)C(C)(C)C` [MM] displayed a Kd of 100 to 1000 nM.

Compound `CC[C@H](NC)C(=O)N[C@H](C(=O)N1CCC[C@H]1Cc1c(-c2ccc(F)cc2)n(C2CCNCC2)c2cc(F)ccc12)[C@@H](C)OC` [JJ] gave a Kd of less than 100 nM.

Regarding `CN[C@@H](CO)C(=O)N[C@H](C(=O)N1C[C@@H](O)C[C@H]1Cc1c(-c2ccc(F)cc2)n(C2CCNCC2)c2cc(F)ccc12)C(C)(C)C` [NN], the Kd lay in the range of 100 to 1000 nM.

`CC[C@H](NC)C(=O)N[C@H](C(=O)N1C[C@@H](O)C[C@H]1Cc1c(-c2ccc(F)cc2)n(C2CCNCC2)c2cc(F)ccc12)[C@@H](C)OC` [RR] had a Kd of less than 100 nM.

Take `CN[C@@H](C)C(=O)N[C@H](C(=O)N1C[C@@H](O)C[C@H]1Cc1c(-c2ccc(F)cc2)n(C2CCNCC2)c2cc(F)ccc12)[C@@H](C)OC` [PP]: the Kd is less than 100 nM.

For the compound `CN[C@H](C(=O)N[C@H](C(=O)N1C[C@@H](O)C[C@H]1Cc1c(-c2ccc(F)cc2)n(C2CCNCC2)c2cc(F)ccc12)[C@@H](C)OC)C1CC1` [SS], the Kd was 100 to 1000 nM.

Regarding `CN[C@@H](C)C(=O)N[C@H](C(=O)N1CCC[C@H]1Cc1c(-c2ccc(F)cc2)n(C2CCNCC2)c2cc(F)ccc12)[C@@H](C)OC` [II], the Kd was less than 100 nM.
